Laboratory results published in US20240317755A1, “HETEROCYCLIC COMPOUND, AND INTERMEDIATE THEREOF, PREPARATION METHOD THEREFOR AND USE THEREOF” (WUHAN LL SCIENCE AND TECHNOLOGY DEVELOPMENT CO., LTD., priority 2021, published 2024).

Tests used:
[1] = Pharmacokinetic study in mice in vivo (gavage and tail vein injection); conditions: for AUC(0-t) / Cmax: dose 1 mg/kg
Description: […] Mouse plasma was collected at a specific time point after administration, and the concentration of the compound in plasma was detected by LC-MS/MS (AB SCIEX Qtrap4500). PK parameters of each compound (WinNonlin V5.2, Pharsight) were statistically analyzed and calculated to reflect the pharmacokinetic properties of the compounds of the present disclosure in mice in vivo.

[2] = PK study of male SD rats after single intragastric administration (5% solutol); format: in vivo; conditions: rat, plasma, single PO compound 1-6 100 mg/kg; for AUC(0-inf) / AUC(0-t) / Cmax / MRT last / half-life: male, SD, po, 100 mg/kg
Description: Effect Example 2: PK Study of Male SD Rats after Single Intragastric Administration of Compound (Using 5% Solutol as a Solvent)
To explore the time-plasma concentration curves of the compound in the plasma of male rats after single intragastric administration of compound 1 (125 mg/kg) and compound 1-6 (100 mg/kg) of the present disclosure and to obtain PK parameters (Cmax, Tmax, AUClast, AUCinf, T1/2, MRT, etc.) of the rats after single administration of compound 1 and compound 1-6 of the present disclosure.
Rats: SD rats, SPF grade, 3 males, weight range of 180 to 200 g (source: Beijing Vital River Laboratory Animal Technology Co., Ltd., certificate number: 110011201109106028); • feeding conditions: ordinary animal house feeding, free access to food and water, 3 animals/cage rearing, 12/12 hours light/dark cycle adjustment (7:00 am/7:00 pm), temperature of 23±1° C.
Dispensing: After accurately weighing the compounds in the PO group, 5% solutol of the required volume was added thereto first, vortexed and mixed evenly for 2 min, sonicated for 30 min, stirred for 2 hours until no visible particles were visible to the naked eye, and the drug was administered while stirring, and the middle layer of the drug solution was taken for drug administration.
Rats: SD rats, SPF grade, 3 males, weight range of 220 to 300 g (source: SPF (Beijing) Biotechnology Co., Ltd., certificate number: 110324200103216838); • feeding conditions: ordinary animal house feeding, free access to food and water, 3 animals/cage rearing, 12/12 hours light/dark cycle adjustment (7:00 am/7:00 pm), temperature of 23±1° C.
Dispensing: After accurately weighing compound 1-6 in the PO group, 5% solutol of the required volume was added first, vortexed and mixed evenly for 2 min, sonicated for 30 min, stirred for 3 hours until no visible particles were visible to the naked eye; • the drug solution was prepared and used immediately, and a sample of the drug solution must be retained for analysis, and two samples of 100 μL each of the upper, middle, and lower suspensions were taken and sent for analysis and testing on the same day.
The rats were randomly divided into 3 groups according to body weight, and the specific grouping and administration are as follows:
• 1. The animals in the PO group were fasted overnight with free access to water before administration, and the food was returned 4 hours after administration; • 2. time points for blood sampling: the time points for blood sampling in the PO group were 0.167, 0.5, 1, 2, 3, 4, 6, 9, 12, and 24 hours.
• 1. The animals in the PG group were fasted overnight with free access to water before administration, and the food was returned 4 hours after administration; • 2. time points for blood sampling: the time points for blood sampling in the PG group were 0.167, 0.5, 1, 2, 3, 4, 6, 9, 12, and 24 hours.
After administration to rats, blood was collected from the orbital venous plexus according to the sampling time points. About 0.2 to 0.3 mL of blood was collected at each time point and transferred to an anticoagulant EP tube (containing 4 μL of EDTA-K2, 375 mg/mL). The tube was gently inverted three times and stored in an ice box (not exceeding 30 minutes). After centrifugation at 3500×g for 10 minutes at 4° C., the supernatant was transferred to a labeled EP tube. Hemolysis was observed and recorded, and the sample was sent to bioassay for testing. If the sample could not be analyzed the same day, the sample was stored at −80° C. until further testing (be careful not to perform multiple freezing/thawing processes). […]

[3] = analyte compound 1-6, mean value

O=C(c1ccc(F)cc1C(F)(F)F)c1cnc2n1CCN(c1cn[nH]c(=O)c1Cl)C2 [Compound 1-6, 4-chloro-5-(3-(4-fluoro-2-(trifluoromethyl)benzoyl)-5,6-dihydroimidazo[1,2-a]pyrazin-7(8H)-yl)pyridazin-3(2H)-one]
AUC(0-t) ([1]; mouse, plasma, iv): 1860 ng·h/mL | Cmax ([1]; mouse, plasma, iv): 1110 ng/mL | bioavailability ([1]; mouse, plasma, po, 1 mg/kg, p.o. vs i.v.): 66.8% | AUC(0-t) ([1]; mouse, plasma, po): 1240 ng·h/mL | Cmax ([1]; mouse, plasma, po): 422 ng/mL | time of peak plasma concentration ([1]; oral administration, 10 mg/kg, previous PK results): 1 h | AUC(0-inf) ([2]; analyte compound 1-6, animal 4): 14500 ng·h/mL | AUC(0-t) ([2]; analyte compound 1-6, animal 4): 13500 ng·h/mL | Cmax ([2]; analyte compound 1-6, animal 4): 1210 ng/mL | MRT last ([2]; analyte compound 1-6, animal 4): 8.03 h | half-life ([2]; analyte compound 1-6, animal 4): 5.95 h | AUC(0-inf) ([2]; analyte compound 1-6, animal 5): 11500 ng·h/mL | AUC(0-t) ([2]; analyte compound 1-6, animal 5): 11200 ng·h/mL | Cmax ([2]; analyte compound 1-6, animal 5): 1290 ng/mL | MRT last ([2]; analyte compound 1-6, animal 5): 6.38 h | half-life ([2]; analyte compound 1-6, animal 5): 4.09 h | AUC(0-inf) ([2]; analyte compound 1-6, animal 6): 27500 ng·h/mL | AUC(0-t) ([2]; analyte compound 1-6, animal 6): 18200 ng·h/mL | Cmax ([2]; analyte compound 1-6, animal 6): 1150 ng/mL | MRT last ([2]; analyte compound 1-6, animal 6): 10 h | half-life ([2]; analyte compound 1-6, animal 6): 14.5 h | AUC(0-inf) [2, 3]: 17800 ng·h/mL | AUC(0-t) [2, 3]: 14300 ng·h/mL | Cmax [2, 3]: 1220 ng/mL | MRT last [2, 3]: 8.15 h | half-life [2, 3]: 5.02 h | Tmax ([2]; analyte compound 1-6, animal 4): 4 h
